Experimental data published in US9643964B2, “3-(2-aminopyrimidin-4-yl)-5-(3-hydroxypropynyl)-1H-pyrrolo[2,3-C]pyridine derivatives as NIK inhibitors for the treatment of cancer” (Janssen Pharmaceutica NV, priority 2013, dated 2017).

Tests used:
[1] = biological target: T1, Recombinant Human NF-kappaB-Inducing Kinase (NIK/MAP3K14) (Homo sapiens, UniProt Q99558); assay: Biological Assay A: inhibition of recombinant human NIK/MAP3K14 activity (MBP phosphorylation, Mesoscale); assay type: biochemical; details: for IC50: averaged over all measurements on all batches, read-out: Biochemical (MSD MBP) IC50; for inhibition at 10 µM: read-out: Biochemical (MSD MBP) Max % Inhib @ 10 μM (Average)
T1 sequence (Q99558 whole entry): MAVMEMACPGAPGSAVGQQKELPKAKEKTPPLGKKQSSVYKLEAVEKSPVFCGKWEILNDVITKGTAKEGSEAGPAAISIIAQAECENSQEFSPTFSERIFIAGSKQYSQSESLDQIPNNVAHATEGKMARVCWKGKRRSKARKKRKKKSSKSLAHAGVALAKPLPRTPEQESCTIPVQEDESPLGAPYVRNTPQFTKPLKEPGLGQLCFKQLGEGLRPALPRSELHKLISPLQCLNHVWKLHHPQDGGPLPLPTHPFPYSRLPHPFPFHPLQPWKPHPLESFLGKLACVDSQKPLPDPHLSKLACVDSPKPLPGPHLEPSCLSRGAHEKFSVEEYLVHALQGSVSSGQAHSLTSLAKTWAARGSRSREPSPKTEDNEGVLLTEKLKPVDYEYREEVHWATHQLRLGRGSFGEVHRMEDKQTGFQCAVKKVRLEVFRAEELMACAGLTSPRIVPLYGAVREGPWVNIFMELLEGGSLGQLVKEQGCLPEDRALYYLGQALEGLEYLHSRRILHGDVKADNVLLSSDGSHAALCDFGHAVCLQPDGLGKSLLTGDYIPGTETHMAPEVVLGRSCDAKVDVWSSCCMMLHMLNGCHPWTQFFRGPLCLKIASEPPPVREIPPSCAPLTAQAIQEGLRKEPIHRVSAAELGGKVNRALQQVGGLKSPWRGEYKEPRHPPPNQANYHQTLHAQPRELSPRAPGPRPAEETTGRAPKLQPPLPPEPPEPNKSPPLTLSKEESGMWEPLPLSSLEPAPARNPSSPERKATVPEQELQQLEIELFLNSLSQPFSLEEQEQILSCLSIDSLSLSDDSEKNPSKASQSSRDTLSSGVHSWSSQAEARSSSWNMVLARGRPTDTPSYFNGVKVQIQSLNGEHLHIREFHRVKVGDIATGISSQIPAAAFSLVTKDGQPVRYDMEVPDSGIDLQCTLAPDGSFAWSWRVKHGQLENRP
Description: Inhibition of Recombinant Human NF-kappaB-Inducing Kinase (NIK/MAP3K14) Activity
Assay buffer was 50 mM Tris pH 7.5 containing 1 mM EGTA (ethylene glycol tetraacetic acid), 1 mM DTT (dithiothreitol), 0.1 mM Na3VO4, 5 mM MgCl2, 0.01% Tween 20. Assays were carried out in 384 well Mesoscale high binding plates which had been coated with myelin basic protein (MBP) and blocked with bovine serum albumin to prevent non-specific protein binding. All compounds tested were dissolved in dimethyl sulfoxide (DMSO) and further dilutions were made in assay buffer. Final DMSO concentration was 1% (v/v) in assays. Incubations consisted of compound (1% DMSO in control and blank wells), 25 μM Adenosine-5′-triphosphate (ATP), and 10 nM NIK/MAP3K14 substituting enzyme with buffer in the blank wells. Incubations were carried out for 1 h at 25° C. and were followed by washing and sequential incubation with rabbit anti-phospho-MBP and anti-rabbit Ig Sulfotag antibody before reading bound Sulfotag on a Mesoscale Discovery. Signal obtained in the wells containing blank samples was subtracted from all other wells and IC50's were determined by fitting a sigmoidal curve to % inhibition of control versus Log10 compound concentration.

[2] = biological target: T1, Recombinant Human NF-kappaB-Inducing Kinase (NIK/MAP3K14); assay: Biological Assay A2: inhibition of auto-phosphorylation of recombinant human NIK/MAP3K14 (AlphaScreen); assay type: biochemical; details: for IC50: auto-phosphorylation, averaged over all measurements on all batches, read-out: αscreen IC50; for inhibition at 10 µM: read-out: αscreen Max % Inhib @ 10 μM (Average)
Description: Inhibition of Auto-Phosphorylation of Recombinant Human NF-kappaB-Inducing Kinase (NIK/MAP3K14) Activity (AlphaScreen®)
NIK/MAP3K14 auto-phosphorylation activity was measured using the AlphaScreen® (αscreen) format (Perkin Elmer). All compounds tested were dissolved in dimethyl sulfoxide (DMSO) and further dilutions were made in assay buffer. Final DMSO concentration was 1% (v/v) in assays. Assay buffer was 50 mM Tris pH 7.5 containing 1 mM EGTA (ethylene glycol tetraacetic acid), 1 mM DTT (dithiothreitol), 0.1 mM Na3VO4, 5 mM MgCl2, 0.01% Tween 20. Assays were carried out in 384 well Alphaplates (Perkin Elmer). Incubations consisted of compound, 25 microM Adenosine-5′-triphosphate (ATP), and 0.2 nM NIK/MAP3K14. Incubations were initiated by addition of GST-tagged NIK/MAP3K14 enzyme, carried out for 1 h at 25° C. and terminated by addition of stop buffer containing anti-phospho-IKK Ser176/180 antibody. Protein A Acceptor and Glutathione-Donor beads were added before reading using an EnVision® Multilabel Plate Reader (Perkin Elmer). Signal obtained in the wells containing blank samples was subtracted from all other wells and IC50's were determined by fitting a sigmoidal curve to % inhibition of control versus Log10 compound concentration.

JJN-3 cells = assay: Biological Assay C: antiproliferative activity on JJN-3 cells (CellTiter-Glo); assay type: cell-based, human; details: 72 hr treatment, averaged values
Description: (§1) Determination of Antiproliferative Activity on LP-1, L-363 and JJN-3 Cells
(§2) All compounds tested were dissolved in DMSO and further dilutions were made in culture medium. Final DMSO concentration was 0.3% (v/v) in cell proliferation assays. Viability was assessed using CellTiter-Glo cell viability assay kit (Promega). The human LP-1, L-363 and JJN-3 cells (DSMZ) were cultured in RPMI 1640 medium supplemented with 2 mM L-glutamine, and 10% fetal calf serum (PAA). Cells were routinely kept as suspension cells at 37° C. in a humidified 5% CO2 atmosphere. Cells were passaged at a seeding density of 0.2×10^6/ml twice a week. Cells were seeded in black tissue culture treated 96-well plates (Perkin Elmer). Densities used for plating ranged from 2,000 to 6,000 cells per well in a total volume of 75 μl medium. After twenty four hours, drugs and/or solvents were added (25 μl) to a final volume of 100 μl. Following 72 hr of treatment plates were removed from the incubator and allowed to equilibrate to room temperature for approx 10 min. 100 μl CellTiter-Glo reagent was added to each well that was then covered (Perkin Elmer Topseal) and shaken on plate shaker for 10 min. Luminescence was measured on a HTS Topcount (Perkin Elmer). Within an experiment, the results for each treatment were the mean of 2 replicate wells. For initial screening purposes, compounds were tested using a 9 point dilution curve (serial 1:3 dilutions). For each experiment, controls (containing no drug) and a blank incubation (containing cells read at the time of compound addition) were run in parallel. The blank value was subtracted from all control and sample values. For each sample, the mean value for cell growth (in relative light units) was expressed as a percentage of the mean value for cell growth of the control.

L-363 cells = assay: Biological Assay C: antiproliferative activity on L-363 cells (CellTiter-Glo); assay type: cell-based, human; details: 72 hr treatment, averaged values
Description: as §1, §2

LP-1 cells = assay: Biological Assay C: antiproliferative activity on LP-1 cells (CellTiter-Glo); assay type: cell-based, human; details: 72 hr treatment, averaged values
Description: as §1, §2

Row | Structure (SMILES) | IC50 [1] | IC50 [2] | inhibition at 10 µM [1] | inhibition at 10 µM [2] | EC50 (JJN-3 cells; Homo sapiens, JJN-3, 72 h) | EC50 (L-363 cells; Homo sapiens, L-363, 72 h) | EC50 (LP-1 cells; Homo sapiens, LP-1, 72 h) | EC50 (JJN-3 cells) | EC50 (L-363 cells) | EC50 (LP-1 cells)
1 | COCCC(C)(O)C#Cc1cc2c(-c3ccnc(N)n3)cn(CC(C)(C)O)c2cn1 (stereo not shown) [Compound 39] | 0.93 µM | 1.6 µM | – | – | – | – | – | – | – | –
2 | COCCn1cc(-c2ccnc(N)n2)c2cc(C#CC3(O)CNC3)ncc21 [Compound 125] | – | – | 18% | 24% | – | – | – | – | – | –
3 | CC(C)n1cc(-c2ccnc(N)n2)c2cc(C#CCO)ncc21 [Compound 13] | 0.03 µM | 0.15 µM | – | – | 0.15 µM | 0.036 µM | 0.71 µM | – | – | –
4 | CC(C)(O)C#Cc1cc2c(-c3nc(N)ncc3C(F)(F)F)cn(CC3CCOCC3)c2cn1 [Compound 71] | 0.026 µM | 0.061 µM | – | – | 0.55 µM | 0.52 µM | 2.6 µM | – | – | –
5 | COCCn1cc(-c2ccnc(N)n2)c2cc(C#CC3(O)CCN(C)CC3)ncc21 [Compound 123] | – | – | 23% | 27% | – | – | – | – | – | –
6 | CC(C)(O)Cn1cc(-c2ccnc(N)n2)c2cc(C#CC(C)(O)C3(C)COC3)ncc21 (stereo not shown) [Compound 47] | 2.9 µM | 9.2 µM | – | – | > 10 µM | > 10 µM | > 10 µM | – | – | –
7 | CC(C)(O)C#Cc1cc2c(-c3nc(N)ncc3C(F)(F)F)cn(CC(C)(C)O)c2cn1 [Compound 72] | 0.0063 µM | 0.038 µM | – | – | 0.32 µM | 0.19 µM | 7.2 µM | – | – | –
8 | CC(C)(O)C#Cc1cc2c(-c3nc(N)ncc3F)cn(C3COC3)c2cn1 [Compound 74] | 0.017 µM | 0.043 µM | – | – | 0.076 µM | 0.045 µM | 1.1 µM | – | – | –
9 | CC(C)(O)C#Cc1cc2c(-c3nc(N)ncc3F)cn(CC3CCOCC3)c2cn1 [Compound 73] | 0.056 µM | 0.071 µM | – | – | 0.19 µM | 0.14 µM | 1.6 µM | – | – | –
10 | CN(C)C(=O)C(C)(O)C#Cc1cc2c(-c3ccnc(N)n3)cn(CC(C)(C)O)c2cn1 (stereo not shown) [Compound 63] | 0.6 µM | 0.78 µM | – | – | – | – | – | – | – | –
11 | COCCCn1cc(-c2nc(N)ncc2F)c2cc(C#CC3(O)CCC3)ncc21 [Compound 95] | – | 0.007 µM | – | – | 0.15 µM | 0.095 µM | 0.47 µM | – | – | –
12 | CC(O)(C#Cc1cc2c(-c3nc(N)ncc3F)cn(CC3CCCO3)c2cn1)C1CC1 (stereo not shown) [Compound 130] | – | 0.028 µM | – | – | 0.3 µM | 0.19 µM | 0.64 µM | – | – | –
13 | CC(C)(O)C#Cc1cc2c(-c3nc(N)ncc3C#N)cn(CC3CCOCC3)c2cn1 [Compound 75] | – | 0.035 µM | – | – | 0.54 µM | 0.67 µM | > 10 µM | – | – | –
14 | Cc1nc(C#CC(C)(O)C2CC2)cc2c(-c3nc(N)ncc3F)cn(C3COC3)c12 (stereo not shown) [Compound 133] | – | 0.05 µM | – | – | 0.14 µM | 0.066 µM | 0.33 µM | – | – | –
15 | CC1(Cn2cc(-c3nc(N)ncc3F)c3cc(C#CC(C)(O)C4CC4)ncc32)COC1 (stereo not shown) [Compound 129] | – | 0.023 µM | – | – | 0.21 µM | 0.15 µM | 0.92 µM | – | – | –
16 | CCN1CC(n2cc(-c3nc(N)ncc3F)c3cc(C#CC(C)(O)C4CC4)ncc32)C1 (stereo not shown) [Compound 136] | – | 0.12 µM | – | – | 0.24 µM | 0.14 µM | 0.45 µM | – | – | –
17 | CC(O)(C#Cc1cc2c(-c3nc(N)ncc3F)cn(C3CN(CC4CC4)C3)c2cn1)C1CC1 (stereo not shown) [Compound 140] | – | 0.1 µM | – | – | 0.17 µM | 0.14 µM | 0.32 µM | – | – | –
18 | COCC(C)N1CC(n2cc(-c3nc(N)ncc3F)c3cc(C#CC(C)(O)C4CC4)ncc32)C1 (stereo not shown) [Compound 162] | – | 0.34 µM | – | – | 0.37 µM | 0.35 µM | 0.79 µM | – | – | –
19 | COCCn1cc(-c2ccnc(N)n2)c2cc(C#CC(C)(O)C3CNC3)ncc21 (stereo not shown) [Compound 124] | – | – | 40% | 33% | – | – | – | – | – | –
20 | CCN1CCOC(Cn2cc(-c3nc(N)ncc3F)c3cc(C#CC(C)(O)C4CC4)ncc32)C1 (stereo not shown) [Compound 127] | – | 0.18 µM | – | – | 0.24 µM | 0.19 µM | 0.42 µM | – | – | –
21 | CC(O)(C#Cc1cc2c(-c3nc(N)ncc3C(F)(F)F)cn(C3COC3)c2cn1)C1CC1 (stereo not shown) [Compound 100] | – | 0.061 µM | – | – | 1.4 µM | 1.5 µM | 3 µM | – | – | –
22 | CNc1ncc(F)c(-c2cn(CCCOC)c3cnc(C#CC(C)(C)O)cc23)n1 [Compound 90] | – | 0.044 µM | – | – | 0.72 µM | 0.51 µM | 0.74 µM | – | – | –
23 | CC(C)N1CC(n2cc(-c3nc(N)ncc3F)c3cc(C#CC(C)(O)C4CC4)ncc32)C1 (stereo not shown) [Compound 159] | – | 0.27 µM | – | – | 0.23 µM | 0.18 µM | 0.32 µM | – | – | –
24 | CC(O)(C#Cc1cc2c(-c3nc(N)ncc3F)cn(C3COC3)c2cn1)C1CC1 (single isomer, unassigned) [Compound 121] | – | 0.68 µM | – | – | – | – | – | 1.4 µM | 1.3 µM | 3.4 µM
25 | CCCN1CC(n2cc(-c3nc(N)ncc3F)c3cc(C#CC(C)(O)C4CC4)ncc32)C1 (stereo not shown) [Compound 139] | – | 0.098 µM | – | – | 0.22 µM | 0.16 µM | 0.34 µM | – | – | –
26 | COCCCn1cc(-c2nc(N)ncc2F)c2cc(C#CC(C)(O)C3CC3)ncc21 (single isomer, unassigned) [Compound 119] | – | 0.23 µM | – | – | – | – | – | 0.7 µM | 0.9 µM | 2.1 µM
